Laboratory results taken from the NIST ThermoML archive (doi:10.1021/acs.jced.7b00937).
± gives the expanded uncertainty stated by the source.

Assay: mn = molality of the nth substance listed, in mol/kg
Details: 100 kPa, Liquid, Capillary tube (Ostwald / Ubbelohde) method

viscosity (288.15 K, m1 = 0.05) [mPa·s] | viscosity (288.15 K, m1 = 0.15) [mPa·s] | viscosity (288.15 K, m1 = 0.25) [mPa·s] | viscosity (288.15 K, m1 = 0.35) [mPa·s] | viscosity (298.15 K, m1 = 0.05) [mPa·s] | viscosity (298.15 K, m1 = 0.15) [mPa·s] | viscosity (298.15 K, m1 = 0.25) [mPa·s] | viscosity (298.15 K, m1 = 0.35) [mPa·s] | viscosity (308.15 K, m1 = 0.05) [mPa·s] | viscosity (308.15 K, m1 = 0.15) [mPa·s] | viscosity (308.15 K, m1 = 0.25) [mPa·s] | viscosity (308.15 K, m1 = 0.35) [mPa·s] | viscosity (318.15 K, m1 = 0.05) [mPa·s] | viscosity (318.15 K, m1 = 0.15) [mPa·s] | viscosity (318.15 K, m1 = 0.25) [mPa·s] | viscosity (318.15 K, m1 = 0.35) [mPa·s] | SMILES
1.16 ± 0.021 | 1.209 ± 0.021 | 1.256 ± 0.021 | 1.304 ± 0.021 | 0.912 ± 0.021 | 0.944 ± 0.021 | 0.982 ± 0.021 | 1.019 ± 0.021 | 0.736 ± 0.02 | 0.761 ± 0.021 | 0.791 ± 0.021 | 0.82 ± 0.021 | 0.607 ± 0.02 | 0.634 ± 0.02 | 0.656 ± 0.02 | 0.68 ± 0.02 | Cc1ncc(CO)c(CO)c1O.Cl [5-hydroxy-6-methyl-3,4-pyridinedimethanol hydrochloride] + O
1.179 ± 0.021 | 1.27 ± 0.021 | 1.368 ± 0.021 | 1.473 ± 0.022 | 0.917 ± 0.021 | 0.986 ± 0.021 | 1.059 ± 0.021 | 1.146 ± 0.021 | 0.748 ± 0.021 | 0.803 ± 0.021 | 0.851 ± 0.021 | 0.91 ± 0.021 | 0.615 ± 0.02 | 0.658 ± 0.02 | 0.703 ± 0.02 | 0.749 ± 0.021 | Cc1ncc(C[n+]2csc(CCO)c2C)c(N)n1.Cl.[Cl-] [thiamine hydrochloride] + O
